Assay results from patent US9743666B2, “Herbicidal composition comprising flazasulfuron and an inhibitor of protoporphyrinogen oxidase” (ISHIHARA SANGYO KAISHA, LTD., priority 2011, dated 2017).
Where two headings read alike, the source gives them in different places.

Key:
corn (Zea mays L.) = assay: Test Example 18: pot test, soil treatment of corn; assay type: in vivo; settings: 14th day after treatment, read-out: Growth inhibition rate (%) of corn, Measured value
[1] = test system: ivy-leaved morningglory (Ipomoea hederacea Jacq.); assay: Test Example 19: pot test, soil treatment of ivy-leaved morningglory; assay type: in vivo; settings: 14th day after treatment, read-out: Growth inhibition rate (%) of ivy-leaved morningglory, Measured value
[2] = test system: persian speedwell (Veronica persica Poir.); assay: Test Example 12: pot test, foliar treatment of persian speedwell, 4.0 to 4.3 leaf-stage; assay type: in vivo; settings: read-out: Growth inhibition rate (%) of persian speedwell, Measured value
[3] = test system: bermudagrass (Cynodon dactylon (L.) Pers.); assay: Test Example 10: pot test, foliar treatment of bermudagrass, 2.2 to 2.5 leaf-stage; assay type: in vivo; settings: read-out: Growth inhibition rate (%) of bermudagrass, Measured value
[4] = test system: common lambsquarters (Chenopodium album L.); assay: Test Example 4: pot test, foliar treatment of common lambsquarters; settings: read-out: Growth inhibition rate (%) of lambsquarters, Measured value
[5] = test system: rostrate sesbania (Sesbania rostrata Bremek. & Oberm.); assay: Test Example 6: pot test, soil treatment of rostrate sesbania, 28th day; assay type: in vivo; settings: 28th day after treatment
[6] = test system: wild oat (Avena fatua L.); assay: Test Example 17: pot test, soil treatment of wild oat, 14th day; assay type: in vivo; settings: 14th day after treatment, read-out: Growth inhibition rate (%) of wild oat, Measured value
[7] = test system: persian speedwell (Veronica persica Poir.); assay: Test Example 1: pot test, foliar treatment of persian speedwell; assay type: in vivo; settings: read-out: Growth inhibition rate (%) of persian speedwell, Measured value
[8] = test system: wild oat (Avena fatua L.); assay: Test Example 16: pot test, soil treatment of wild oat, 28th day; assay type: in vivo
[9] = test system: black nightshade (Solanum nigrum L.); assay: Test Example 9: pot test, soil treatment of black nightshade; assay type: in vivo; settings: 28th day after treatment, read-out: Growth inhibition rate (%) of black nightshade, Measured value
[10] = test system: wild oat (Avena fatua L.); assay: Test Example 5: pot test, soil treatment of wild oat, 13th day; assay type: in vivo; settings: soil treatment one day after sowing, 13th day after treatment; for inhibition at 25 g/ha / inhibition at 50 g/ha: Avena fatua, 24 h, read-out: Growth inhibition rate (%) of wild oat, Measured value
[11] = test system: sunn-hemp (Crotalaria juncea L.); assay: Test Example 7: pot test, soil treatment of sunn-hemp; assay type: in vivo
[12] = test system: bermudagrass (Cynodon dactylon (L.) Pers.); assay: Test Example 11: pot test, foliar treatment of bermudagrass, 3.8 to 4.3 leaf-stage; assay type: in vivo; settings: read-out: Growth inhibition rate (%) of bermudagrass, Measured value
[13] = test system: velvetleaf (Abutilon theophrasti Medic.); assay: Test Example 8: pot test, soil treatment of velvetleaf; assay type: in vivo; settings: 28th day after treatment, read-out: Growth inhibition rate (%) of velvetleaf, Measured value
[14] = test system: shattercane (Sorghum bicolor (L.) Moench); assay: Test Example 20: pot test, soil treatment of shattercane; assay type: in vivo; settings: 14th day after treatment, read-out: Growth inhibition rate (%) of shattercane, Measured value
[15] = test system: rostrate sesbania (Sesbania rostrata Bremek. & Oberm.); assay: Test Example 14: pot test, soil treatment of rostrate sesbania, 14th day; assay type: in vivo; settings: 14th day after treatment
[16] = test system: sticky chickweed (Cerastium glomeratum Thuill.); assay: Test Example 3: pot test, foliar treatment of sticky chickweed; assay type: in vivo; settings: read-out: Growth inhibition rate (%) of sticky chickweed, Measured value
[17] = test system: japanese millet (Echinochloa esculenta (A. Braun) H. Scholz.); assay: Test Example 13: pot test, soil treatment of japanese millet; assay type: in vivo
[18] = test system: sunn-hemp (Crotalaria juncea L.); assay: Test Example 15: pot test, soil treatment of sunn-hemp; assay type: in vivo; settings: 28th day after treatment
[19] = test system: black nightshade (Solanum nigrum L.); assay: Test Example 2: pot test, foliar treatment of black nightshade; assay type: in vivo
[20] = dose 50 g/ha, 2.2 to 2.5 leaf-stage, 28th day after treatment
[21] = Crotalaria juncea, soil, read-out: Growth inhibition rate (%) of sunn-hemp, Measured value

C=CCOC(=O)C(C)(C)OC(=O)c1cc(-n2c(=O)cc(C(F)(F)F)n(C)c2=O)ccc1Cl [Butafenacil, butafenacil]
inhibition at 100 g/ha (corn (Zea mays L.); dose 100 g/ha): 20%
inhibition at 10 g/ha ([1]; dose 10 g/ha): 0%

CCOC(=O)C(Cl)Cc1cc(-n2nc(C)n(C(F)F)c2=O)c(F)cc1Cl (stereo not drawn) [Carfentrazone-ethyl, carfentrazone-ethyl]
inhibition at 25 g/ha [2]: 65%
inhibition at 20 g/ha [3]: 0%
inhibition at 50 g/ha [3]: 0%
inhibition at 27.4 g/ha [4]: 92%

COc1cc(OC)nc(NC(=O)NS(=O)(=O)c2ncccc2C(F)(F)F)n1 [Flazasulfuron, 1-(4,6-dimethoxypyrimidin-2-yl)-3-(3-trifluoromethyl-2-pyridylsulfonyl)urea]
inhibition at 12.5 g/ha ([5]; Sesbania, dose 12.5 g/ha, read-out: Growth inhibition rate (%) of rostrate sesbania, Measured value): 25%
inhibition at 25 g/ha ([6]; dose 25 g/ha): 30%
inhibition at 25 g/ha ([7]; dose 25 g/ha, 7 to 8 leaf-stage, 21st day after treatment): 10%
inhibition at 12.5 g/ha ([8]; Avena fatua, dose 12.5 g/ha, soil treatment, 28th day after treatment, read-out: Growth inhibition rate (%) of wild oat, Measured value): 20%
inhibition at 25 g/ha ([8]; Avena fatua, dose 25 g/ha, soil treatment, 28th day after treatment, read-out: Growth inhibition rate (%) of wild oat, Measured value): 75%
inhibition at 50 g/ha ([9]; dose 50 g/ha): 85%
inhibition at 25 g/ha ([2]; dose 25 g/ha, 4.0 to 4.3 leaf-stage, 28th day after treatment): 0%
inhibition at 25 g/ha [10]: 40%
inhibition at 50 g/ha ([10]; dose 50 g/ha): 70%
inhibition at 50 g/ha [3, 20]: 75%
inhibition at 100 g/ha ([3]; dose 100 g/ha, 2.2 to 2.5 leaf-stage, 28th day after treatment): 75%
inhibition at 50 g/ha ([11]; Crotalaria juncea, dose 50 g/ha, soil treatment, 28th day after treatment, read-out: Growth inhibition rate (%) of sunn-hemp, Measured value): 55%
inhibition at 12.5 g/ha ([12]; dose 12.5 g/ha, 3.8 to 4.3 leaf-stage, 28th day after treatment): 15%
inhibition at 50 g/ha ([13]; dose 50 g/ha): 88%
inhibition at 100 g/ha ([13]; dose 100 g/ha): 88%
inhibition at 12.5 g/ha ([14]; dose 12.5 g/ha): 0%
inhibition at 1.6 g/ha [4]: 3%
inhibition at 50 g/ha ([15]; Sesbania, dose 50 g/ha, read-out: Growth inhibition rate (%) of rostrate sesbania, Measured value): 50%
inhibition at 6.3 g/ha ([16]; dose 6.3 g/ha, 3.3 to 4.0 leaf-stage, 21st day after treatment): 92%
inhibition at 50 g/ha ([17]; Echinochloa esculenta, dose 50 g/ha, soil treatment, 14th day after treatment, read-out: Growth inhibition rate (%) of japanese millet, Measured value): 80%
inhibition at 12.5 g/ha (corn (Zea mays L.); dose 12.5 g/ha): 70%
inhibition at 25 g/ha ([18]; Crotalaria juncea, dose 25 g/ha, read-out: Growth inhibition rate (%) of sunn-hemp, Measured value): 0%
inhibition at 50 g/ha ([1]; dose 50 g/ha): 60%
inhibition at 50 g/ha ([19]; Solanum nigrum, dose 50 g/ha, 3.2 to 3.5 leaf-stage, 21st day after treatment, read-out: Growth inhibition rate (%) of black nightshade, Measured value): 74%
dose required to completely suppress growth of black nightshade ([19]; flazasulfuron alone): ≥ 50 g/ha

CCOC(=O)COc1cc(-n2ncc(C(F)(F)F)c(C)c2=O)c(F)cc1Cl [Flufenpyr-ethyl, flufenpyr-ethyl]
Growth inhibition rate (%) of rostrate sesbania, Measured value ([15]; dose 5 g/ha): 0%
Growth inhibition rate (%) of sunn-hemp, Measured value ([18]; dose 50 g/ha): 0%

C#CCN1C(=O)COc2cc(F)c(N3C(=O)C4=C(CCCC4)C3=O)cc21 [Flumioxazin, flumioxazin]
inhibition at 250 g/ha ([5]; Sesbania, dose 250 g/ha, read-out: Growth inhibition rate (%) of rostrate sesbania, Measured value): 70%
inhibition at 500 g/ha ([6]; dose 500 g/ha): 75%
inhibition at 250 g/ha ([8]; Avena fatua, dose 250 g/ha, soil treatment, 28th day after treatment, read-out: Growth inhibition rate (%) of wild oat, Measured value): 90%
inhibition at 2.5 g/ha ([9]; dose 2.5 g/ha): 0%
inhibition at 5 g/ha ([3]; dose 5 g/ha, 2.2 to 2.5 leaf-stage, 28th day after treatment): 20%
inhibition at 200 g/ha ([15]; Sesbania, dose 200 g/ha, read-out: Growth inhibition rate (%) of rostrate sesbania, Measured value): 75%
inhibition at 100 g/ha ([18]; Crotalaria juncea, dose 100 g/ha, read-out: Growth inhibition rate (%) of sunn-hemp, Measured value): 0%

COC(=O)CSc1cc(/N=c2\sc(=O)n3n2CCCC3)c(F)cc1Cl [Fluthiacet-methyl, fluthiacet-methyl]
inhibition at 5 g/ha ([15]; Sesbania, dose 5 g/ha, read-out: Growth inhibition rate (%) of rostrate sesbania, Measured value): 0%
inhibition at 50 g/ha ([18]; Crotalaria juncea, dose 50 g/ha, read-out: Growth inhibition rate (%) of sunn-hemp, Measured value): 0%

CC(C)=C1OC(=O)N(c2cc(OC3CCCC3)c(Cl)cc2F)C1=O [Pentoxazone, pentoxazone]
inhibition at 250 g/ha ([8]; Avena fatua, soil, read-out: Growth inhibition rate (%) of wild oat, Measured value): 0%
inhibition at 100 g/ha ([17]; Echinochloa esculenta, soil, read-out: Growth inhibition rate (%) of japanese millet, Measured value): 0%

C#CCN(C)c1c(C#N)cnn1-c1nn2c(c1Cl)CCCC2 [Pyraclonil, pyraclonil]
Growth inhibition rate (%) of wild oat, Measured value ([8]; dose 250 g/ha, soil treatment, 28th day after treatment): 40%
Growth inhibition rate (%) of japanese millet, Measured value ([17]; dose 100 g/ha, soil treatment, 14th day after treatment): 30%

CCOC(=O)COc1cc(-c2nn(C)c(OC(F)F)c2Cl)c(F)cc1Cl [Pyraflufen-ethyl, pyraflufen-ethyl]
inhibition at 10 g/ha [7]: 43%
inhibition at 80 g/ha [2]: 80%
inhibition at 10 g/ha [11, 21]: 20%
inhibition at 50 g/ha [11, 21]: 45%
inhibition at 40 g/ha [12]: 0%
inhibition at 10 g/ha [16]: 58%
inhibition at 2.5 g/ha ([19]; Solanum nigrum, read-out: Growth inhibition rate (%) of black nightshade, Measured value): 88%

CC(C)N(C)S(=O)(=O)NC(=O)c1cc(-n2c(=O)cc(C(F)(F)F)n(C)c2=O)c(F)cc1Cl [Saflufenacil, saflufenacil]
inhibition at 50 g/ha ([8]; Avena fatua, dose 50 g/ha, soil treatment, 28th day after treatment, read-out: Growth inhibition rate (%) of wild oat, Measured value): 0%
inhibition at 25 g/ha [10]: 15%
inhibition at 50 g/ha ([10]; dose 50 g/ha): 5%
inhibition at 5 g/ha ([13]; dose 5 g/ha): 0%
inhibition at 10 g/ha ([13]; dose 10 g/ha): 65%
inhibition at 100 g/ha ([14]; dose 100 g/ha): 20%

Cc1nn(-c2cc(NS(C)(=O)=O)c(Cl)cc2Cl)c(=O)n1C(F)F [Sulfentrazone, sulfentrazone]
inhibition at 50 g/ha [3, 20]: 30%
inhibition at 25 g/ha ([13]; dose 25 g/ha): 20%
inhibition at 500 g/ha ([18]; Crotalaria juncea, dose 500 g/ha, read-out: Growth inhibition rate (%) of sunn-hemp, Measured value): 30%

oxadiargyl
Growth inhibition rate (%) of rostrate sesbania, Measured value ([5]; dose 400 g/ha): 20%
Growth inhibition rate (%) of wild oat, Measured value ([10]; dose 50 g/ha): 5%
Growth inhibition rate (%) of wild oat, Measured value ([10]; dose 800 g/ha): 20%
Growth inhibition rate (%) of sunn-hemp, Measured value ([11]; dose 400 g/ha, soil treatment, 28th day after treatment): 40%
